Data as given in patent publication US10662193B2, “Carbazole and carboline compounds for use in the diagnosis, treatment, alleviation or prevention of disorders associated with amyloid or amyloid-like proteins” (AC IMMUNE SA, priority 2014, dated 2020).

Tested on: tau tangles/Aβ plaques on AD brain sections
Test: Assay 1: direct staining of human Alzheimer's disease brain sections (fluorescence)
Format: binding
Parameters: key to Direct staining of tau tangles/Aβ plaques on AD brain sections at 100 μM / Direct staining of tau tangles on AD brain sections at 100 μM / Direct staining of Aβ plaques on AD brain sections at 100 μM / Direct staining of tau tangles on AD brain sections (footnote a: at 250 μM): − (No); +++ (strong); ++ (good); + (weak)
Experimental: Assay 1 (Fluorescence Based Assay):
Direct Binding of Compounds of this Invention to Human Alzheimer's Disease Brain Sections and/or Displacement of RefA and Compound B
Frozen sections with a thickness of […] from the amygdala of donors diagnosed with Braak stage V-VI Alzheimer's Disease (Braak, H.; Braak, E. Acta Neuropathol., 1991, 82, 239-259), were purchased from a commercial provider (Tissue Solutions) and kept at −80° C. until use.
Direct Staining of Human Alzheimer's Disease Brain Sections
Brain sections were encircled with pap pen liquid blocker to reduce the volume of solution for the different incubations. Sections were fixed for 15 min at 4° C. with 4% paraformaldehyde and washed three times 5 minutes with PBS at room temperature. […] To reduce the auto-fluorescence of the tissue, the sections were incubated in a solution of 0.1% Sudan Black (Sigma 199664) in 70% ethanol for 15 min at room temperature in the dark, washed four times for 5 minutes with PBS, and mounted using ProLong Gold Antifade reagent (Invitrogen P36930). Sections were then analyzed on the Nikon Eclipse Ti microscope to detect staining and imaged using Nikon DS-Fi2 camera and NIS-Element AR4.13.1 software.

[1] = 100 μM compound, human AD brain sections, fluorescence, cell does not say tangles or plaques

SMILES	Direct staining of tau tangles/Aβ plaques on AD brain sections at 100 μM [1]	Direct staining of tau tangles on AD brain sections at 100 μM (100 μM compound)	other results
COCCOCCn1c2ccncc2c2ccc(Nc3cccc(OCCF)c3)nc21 [Example 167]	−		
Cn1c2c(c3ccc(Nc4ccc(C#N)c(F)c4)nc31)C(=O)NCC2 [Example 179]		+ (tangles)	
Cn1c2c(c3ccc(Nc4cc(OCCF)ccn4)nc31)C(=O)NCC2 [Example 208]	−		
Cn1c2ccncc2c2ccc(Nc3cccc(OCCOCCOCCF)n3)nc21 [Example 60]		++ (tangles) ++ (plaques)	Direct staining of Aβ plaques on AD brain sections at 100 μM (100 μM compound): ++ (tangles) ++ (plaques)
Cn1c2ccncc2c2ccc(Nc3cccc(NCCF)c3)nc21 [Example 71]		+ (tangles) + (plaques)	Direct staining of Aβ plaques on AD brain sections at 100 μM (100 μM compound): + (tangles) + (plaques)
Cn1c2c(c3ccc(Nc4ccc(C#N)c(F)c4)nc31)C(=O)N(CCF)CC2 [Example 187]		+ (tangles)	
Cn1c2c(c3ccc(Nc4ccc(F)c(F)c4)nc31)C(=O)N(CCO)CC2 [Example 215]			Direct staining of tau tangles/Aβ plaques on AD brain sections at 100 μM (100 μM in 50% ethanol, 20 min, "(tangles)" beside the symbol = tangles stained): −
Cn1c2c(c3ccc(Nc4cnn(CCF)c4)nc31)C(=O)NCC2 [Example 186]			Direct staining of Aβ plaques on AD brain sections at 100 μM (100 μM compound): + (plaques)
CN1CCc2c(c3ccc(Nc4cccc(OCCF)n4)nc3n2C)C1=O [Example 209]	−		
Cn1c2ccncc2c2ccc(N3CC[C@H](F)C3)nc21 [Example 160]	−		
Cn1c2ccncc2c2ccc(Nc3ccc(F)c(OCCF)c3)nc21 [Example 57]		++ (tangles)	
Cn1c2ccncc2c2ccc(Nc3ncc(C#N)s3)nc21 [Example 61]	−		
Cn1c2ccncc2c2ccc(Nc3ccc(OCCF)cn3)nc21 [Example 62]		+ (tangles)	
CN1CCc2c(c3ccc(Nc4ccc(OCCF)cn4)nc3n2C)C1=O [Example 206]	−		
Cn1c2ccncc2c2ccc(Nc3cccc(N4CCC(F)CC4)c3)nc21 [Example 33]		+ (tangles) + (plaques)	Direct staining of Aβ plaques on AD brain sections at 100 μM (100 μM compound): + (tangles) + (plaques)
Cn1c2c(c3ccc(Nc4cccc(OCCF)c4)nc31)C(=O)NCC2 [Example 178]	−		
CN1CCc2c(c3ccc(Nc4ccc(F)c(O)c4)nc3n2C)C1=O [Example 203]	−		
CN1CCc2c(c3ccc(Nc4ccnc(OCCF)c4)nc3n2C)C1=O [Example 204]	−		
Cn1c2c(c3ccc(Nc4ccc5nsnc5c4)nc31)C(=O)N(CCF)CC2 [Example 188]	−		
Cn1c2ccncc2c2ccc(Nc3ccnc(OCCF)c3)nc21 [Example 58]			Direct staining of Aβ plaques on AD brain sections at 100 μM (100 μM compound): +++ (plaques)
Cn1c2c(c3ccc(Nc4ccc(OCCF)c(F)c4)nc31)C(=O)NCC2 [Example 199]		+ (tangles) + (plaques)	Direct staining of Aβ plaques on AD brain sections at 100 μM (100 μM compound): + (tangles) + (plaques)
Cc1nn(CCF)c(C)c1Nc1ccc2c3cnccc3n(C)c2n1 [Example 49]		+ (tangles)	
COc1cc(Nc2ccc3c4cnccc4n(C)c3n2)ccc1F [Example 31]		+ (tangles) + (plaques)	Direct staining of Aβ plaques on AD brain sections at 100 μM (100 μM compound): + (tangles) + (plaques)
CN1CCc2c(c3ccc(N4CCC[C@@H](F)C4)nc3n2C)C1=O [Example 196]	−		
Cn1c2c(c3ccc(Nc4ccnc(OCCF)c4)nc31)C(=O)NCC2 [Example 205]	−		
Cn1c2ccncc2c2ccc(Nc3ccc(NCCF)cn3)nc21 [Example 79]	−		
